The test system of assay [1] is BAD_0569/BAD_0568-CcaR TCS. The conditions noted are these: E. coli expressing BAD_0569 and BAD_0568-CcaR, sfGFP from PcpcG2; panel of over 40 gut chemicals.
Source text: Briefly, the wild type BAD_0569 SK of Bifidobacterium adolescent was expressed in E. coli. A modified cognate response regulator BAD_0568 was simultaneously expressed in E. coli, wherein the native DBD from the Bifidobacterium adolescentis RR was replaced with that of the DBD from the well-characterized OmpR-PhoB family RR CcaR. When phosphorylated, native CcaR activates transcription from PcpcG2, or its derivatives. A superfolder GFP reporter gene (a.k.a. GFP) was expressed from PcpcG2 in the same E. coli. Anydrotetracyline (aTc) induces expression of the BAD_0568-CcaR hybrid, which activates PcpcG2 transcription and thus GFP expression.
We then tested E. coli expressing the hybrid BAD_0569/8 TCS (i.e. BAD_0569 and BAD_0568-CcaR with sfGFP expressed from PcpcG2) in the presence of over 40 chemicals previously found to be enriched in the large intestines of germ-free mice made to carry gut bacteria of obese humans, but not found to be enriched in those mice carrying the gut bacteria of their lean twins.
Assay [2] deals with NarL / PdcuS promoter. Conditions: PdcuS promoter repressed by phosphorylated NarL, sfGFP; cited from earlier work.

`CSCC[C@H](N)C(=O)O` [methionine]: the “response of rewired BAD_0569/8 TCS (sfGFP reporter) to the chemical” value in assay [1] is “largest response”.

On to `O=[N+]([O-])O` [nitrate], for which, in assay [2], the “sensitivity of the sensor” value is given as “The sensitivity of the sensor is in the sub-mM to mM range for nitrate”.

Source of the values: patent publication US10793840B2, “Identifying ligands for bacterial sensors” (William Marsh Rice University, priority 2015, dated 2020).
